“Also recorded” adds a separate entry of the source.

What all share (assay type): cell-based
In series [1] the test system is acyl-CoA oxidase (AOX). In words: Semi-quantitative RT-PCR in primary fibroblasts. The settings on record: 5 mM 4-PBA. As to the method: Semi-quantitative RT-PCR was done on the mRNA isolated from these cells (FIG. 1). […] In addition, the expression of acyl-CoA oxidase (AOX), the rate-limiting enzyme in VLCFA β-oxidation, was not affected. Although previous studies have reported that ALDR mRNA was not detectable in fibroblasts by either northern or RT-PCR analyses, those RT-PCR studies used about 66 ng of CDNA; we used about 250 ng of cDNA.
In rodents PPARα expression is increased by peroxisomal proliferators. […] Thus, although the peroxisome proliferation response in mice may be, at least in part, through the documented PPARα pathway, the response in human cells seems to be through a newly discovered pathway that may involve Pex11α. […] This again indicates a newly discovered pathway for 4-PBA-induced peroxisome proliferation in humans and perhaps in rodents. AOX has been identified as the rate-limiting step in VLCFA β-oxidation.
(§1) Semi-quantitative RT-PCR analysis. Total RNA from tissue culture cells (10^6-10^7 cells/sample) was isolated using TRizol Reagent™ (Life Technologies), treated with DNase I (100-200 units in 40 mM HCI, 10 mM NaCl, 6 mM MgCl2, pH 7.3), incubated at 37° C. for 30 min, extracted with phenol/chloroform, and precipitated with isopropanol. cDNA was generated using MMLV reverse transcriptase (RT) (Life Technologies). PCR was done in the linear range of amplification (determined for each primerpair-cDNA combination). For each cDNA sample, a ‘cocktail’ was prepared, containing PCR buffer (Promega), 200 µM of each DNTP, 1.5 mM MgCl2, 250 ng cDNA, 0.25 U of Taq polymerase (Promega) and […]. The ‘cocktail’ was divided into separate tubes containing cDNA specific primers.
(§2) Primers. The PCR primers used are listed below. In the parentheses, h indicates human and m, mouse; this is followed by the gene name, product size and annealing temperature. For primer sequences, F is forward and R is reverse. […]

The subject of series [2] is ALDRP. In words: Western blot with densitometry relative to β-actin. The conditions noted are these: normal mouse fibroblasts, after 10 days of exposure; data not shown. The text has this: Open bars, untreated cells; hatched bars, treated cells.
These findings indicate that ALDP1 and ALDRP may occupy equivalent domains within the peroxisomal membrane. This would agree with the observation that ALDP and ALDRP are generally expressed in different cell types.
Western blot analysis. Tissue culture cells were scraped from tissue culture dishes using a policeman, into cold PBS solution and protease inhibitor cocktail (Boehringer). Samples were mixed (1:1) with 2× sample buffer. Total protein samples were fractionated by SDS-PAGE using a 7.5% gel using the method of Laemmlis'. […] Enhanced chemiluminescence (SuperSignal Substrate; Pierce, Rockford, Ill.) was used to detect bound antibody.
(In general: A western blot detects proteins with antibodies after separation by electrophoresis.)

Series [3] has as its system human primary fibroblasts derived from X-ALD patients. In words: VLCFA (C24:0, C26:0) levels in cultured cells, capillary GC. The text has this: (§3) The genotypes of the X-ALD patients included missense, nonsense, frame shift and deletion mutations and all of the main clinical phenotypes.
After two days of treatment, a time-dependent reduction in VLCFA levels in human and mouse X-ALD cell lines was observed. In human lymphoblastoid cells and mouse fibroblasts, C24:0 and C26:0 levels were normalized within 10 days of treatment, In human X-ALD fibroblasts, C24:0 levels were normalized within 10 days, whereas C26:0 levels were reduced by 47% after 22 days. The results obtained were independent of genotype or phenotype.
Cell culture and 4-PBA treatment. Cell lines derived from X-ALD patients and X-ALD mice were grown in MEM (fibroblasts) or RPMI (ymphoblastoid cells) supplemented with fetal calf serum (10%), penicillin (100 U/ml), streptomycin (100 U/mi) and glutamine (2 mM). […]
Biochemical measurements. […] C24:0 β-oxidation activity of human and mouse fibroblasts and human lymphoblastoid cells was determined by measuring their capacity to degrade [1-^14C]-C24:0 fatty acid (American Radiolabeled Chemicals, St Louis, Mo.) to water-soluble products as described. Phytanic acid oxidation was measured as described. Cells were incubated with [2,3-^3H]-phytanic acid for 24 hours, and the release of ^3H-H2O to the aqueous medium was determined (activity in pmol/hr per mg protein).

Series [4] deals with Pex11α. In words: Semi-quantitative RT-PCR in primary fibroblasts. As to the method:
as §1, §2

Series [5] deals with human primary fibroblasts. In words: Toxicity of 4-PBA concentration in culture. The conditions noted are these: data not shown.
Text: as §3

Series [6] relates to mouse primary fibroblasts. Briefly: Toxicity of 4-PBA concentration in culture. The conditions noted are these: data not shown.
Text: as §3

On to `O=C(O)CCCc1ccccc1` [4-PBA, 4-Phenyl butyrate], for which the AOX expression result was “not affected; also recorded: unchanged” in series [1] (human fibroblasts, 2 days); “remained unchanged” in series [1] (human fibroblasts, 10 days); “not affected; also recorded: unchanged” in series [1] (mouse fibroblasts, 2 days). Also, the ALDRP protein level result in series [2] is “not increased”. In addition, in series [3] (5 mM 4-PBA, after 22 days), the “C26:0 levels reduced by” value was determined as 47%. In addition, the “effect of concentration on VLCFA levels” value in series [3] (between 1 mM and 5 mM 4-PBA, human X-ALD fibroblasts and lymphoblastoid cells, data not shown) was “dose-dependent decrease”. The Pex11α expression entry in series [4] (human fibroblasts, 5 mM 4-PBA, after 2 days) is on record as “substantial increase”. Further, in series [4] (normal or X-ALD mouse fibroblasts, before or after 10 day exposure to 5 mM 4-PBA, data not shown), the Pex11α transcripts result is listed as “undetectable”. Besides, the “concentrations toxic for cells” value in series [5] and in series [6] was “exceeding 7.5 mM” each time.

The values above are taken from patent publication US6458838B1, “Adrenoleukodystrophy treatments” (Johns Hopkins University, priority 1999, dated 2002).
